Results published in patent publication US7160733B2, “Ligand specific to β2-glycoprotein I and use thereof” (priority 2001, dated 2007).

Key:
β2-GPI [1] = biological target: T1, β2-GPI (Homo sapiens, UniProt P02749); experiment: ELISA on solid-phase lipid (ligand)-coated plate: β2-GPI binding detected with Cof-22; conditions: for β2-GPI binding (Cof-22 binding), No treatment: absorbance at 490 nm, mean ± SD (n = 3), solid-phase ligand not methylated; for β2-GPI binding to lipid: result in words (discussion)
T1 construct: β2-GPI was purified from normal human plasma as described in [35] with slight modification; from tissue; host or cells: pooled normal human plasma from healthy subjects
T1 sequence (P02749 20-345): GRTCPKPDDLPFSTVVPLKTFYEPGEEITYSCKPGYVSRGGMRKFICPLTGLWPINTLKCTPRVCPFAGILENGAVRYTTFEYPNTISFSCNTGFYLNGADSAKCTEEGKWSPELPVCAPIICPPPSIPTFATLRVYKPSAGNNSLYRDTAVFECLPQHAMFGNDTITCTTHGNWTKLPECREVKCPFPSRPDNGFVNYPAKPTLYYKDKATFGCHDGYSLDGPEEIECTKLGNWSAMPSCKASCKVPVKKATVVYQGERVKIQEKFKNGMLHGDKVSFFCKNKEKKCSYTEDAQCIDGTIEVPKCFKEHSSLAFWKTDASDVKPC
Experimental: (§1) Binding to extracted lipids: A microtiter plate (Immulon 1B, Dynex Technologies Inc.) was coated with lipids extracted from LDLs (50 μg/mL, 50 μL/well) by ethanol evaporation. The wells were blocked with PBS containing 1% BSA for one hour and the wells were incubated with 30 μg/mL of β2-GPI for one hour. Then, β2-GPI binding was detected using Cof-22 and HRP-labeled anti-mouse IgG antibodies. Alternatively, an anti-β2-GPI autoantibody (Cof-22, WB-CAL-1, or EY2C9) was diluted with a 0.3% BSA-containing PBS, and the diluted antibody was added to the coated plate (1.0 μg/mL, 100 μL/well) and incubated with β2-GPI (15 μg/mL) for one hour. The binding of the antibody was detected by an HRP-labeled anti-mouse IgG /or an anti-human IgM. The color was developed with H2O2 and o-phenylenediamine, and OD was measured at 490 nm. Between these steps, extensive washing were done using PBS containing 0.05% Tween 20.
(§2) Synthesized oxLig-1 (50 μg/mL, 50 μL/well) was adsorbed by evaporation on a polystyrene plate (Immulon 1B; Dynex Technologies Inc.), and the plate was then blocked with 1% BSA. Serum samples (diluted 1:100 with PBS containing 0.3% BSA) were incubated in the wells with β2-GPI (15 μg/mL) or other proteins for one hour at room temperature. Antibody binding was detected with HRP-labeled anti-human IgG. Further steps were performed through a method as described in “anti-β2-GPI ELISA.”
(§3) CL (50 μg/mL, 50 μL/well) was adsorbed on a polystyrene plate (Immulon 1B), and further steps were performed through a method as described in “ELISA for antibodies against a protein-oxLig-1 complex.”

EY2C9 = experiment: ELISA on solid-phase lipid (ligand)-coated plate: EY2C9 binding in presence of β2-GPI; design: species or system human; conditions: for EY2C9 binding, No treatment: absorbance at 490 nm, mean ± SD (n = 3), solid-phase ligand not methylated
Experimental: as §1, §2, §3

J774A.1 cells = experiment: Liposome binding to macrophages (3H-labeled liposomes, 4° C.); assay type: cell-based, murine; conditions: result in words; for direct binding of liposomes to macrophages: J774A.1 cells, 2 hours at 4° C., 50 nmol lipid/well, without β2-GPI and antibody; for binding of liposomes to macrophages after methylation of the ligand: liposomes containing methylated ligand, with β2-GPI and WB-CAL-1, FIGS. 20C and 20D; for uptake of ligand-containing liposomes to J774A.1 cells in the presence of both β2-GPI and WB-CAL-1: compared with cholesteryl linoleate-liposomes (control), FIG. 20
Experimental: FIG. 10. Effect of phosphatidylserine (PS) or oxLig-1 content on the binding of liposomes to macrophages. A monolayer of J774.A1 cells was incubated for 2 hours at 4° C. with Celgrosser-P medium containing ^3H-labeled liposomes (50 nmol lipid/well). Open circle represents PS-liposomes; closed circle represents PS-Chol-liposomes; open square represents oxLig-1-liposomes; and closed square represents oxLig-1-Chol-liposomes. Data are indicated as the mean± SD of triplicate samples.
FIG. 11. β2-GPI and anti-β2-GPI monoclonal antibody-dependent binding of ligand-containing liposomes to macrophage. A monolayer of J774.A1 cells was incubated for 2 hours at 4° C. with Celgrosser-P medium containing ^3H-labeled liposomes (50 nmol lipid/well) and WB-CAL-1, in the presence or absence of β2-GPI (200 μg/ml). • A: Binding of PS-liposomes (PS: 50 mol %,) to J774.A1. cells in the presence (closed square) or absence (open square) of β2-GPI (200 μg/ml) • B: Binding of oxLig-1-liposomes (oxLig-1: 40 mol %) to J774.A1 cells in the presence (black bar) or absence (white bar) of β2-GPI (200 μg/ml). • C: A monolayer of J774.A1 cells was incubated for 2 hours at 4° C. with Celgrosser-P medium containing ^3H-labeled synthesized oxLig-1-liposomes (50 nmol lipid/well) and WB-CAL-1, in the presence or absence of β2-GPI (200 μg/ml). Binding of synthesized oxLig-1-liposomes in the absence of β2-GPI and WB-CAL-1 (open circle), binding of synthesized oxLig-1-liposomes in the presence of β2-GPI (open square), binding of synthesized oxLig-1-liposomes in the presence of WB-CAL-1 (closed square), and binding of synthesized oxLig-1-liposomes in the presence of both β2-GPI and WB-CAL-1 (closed circle). Data are indicated as the mean ± SD of triplicate samples.
A monolayer of J774.A1 cells was incubated for 2 hours at 4° C. with Celgrosser-P medium containing [^3H]-labeled liposomes (containing a predetermined ligand, 50 nmol lipid/well). DPPS-containing liposomes (open squares), oxLig-1-containing liposomes (closed squares), oxLig-2-containing liposomes (closed circles), and 13-COOH-7KC-containing liposomes (closed triangles). Data are indicated as mean± SD of triplicate samples.
A monolayer of J774.A1 cells was incubated for 2 hours at 4° C. with Celgrosser-P medium containing [^3H]-labeled liposomes (containing a predetermined ligand (30 mmol %), 50 nmol lipid/well) and in the presence (black bars) or absence (white bars) of β2-GPI (200 μg/mL) and WB-CAL-1 ([…]).
A monolayer culture of murine macrophage-like cells (J774A.1) obtained from Riken Cell Bank (Tsukuba) was maintained in RPMI 1640 medium supplemented with 10% fetal carf serum (FCS). For binding experiments, the cells (8×10^5 cells/mL, RPMI1640) were dispensed in an amount of 1 mL/well into a 12-well culture plate (Sumitomo Bakelite Co., Ltd.) and were incubated for 24 hours at 37° C., then the culture broth was replaced with Celgrosser-P medium (Sumitomo Pharmaceutical Co.). After one hour of preincubation at 37° C., 50 μL of liposomes (50 nmol lipid/well) with or without β2-GPI (200 μg/mL) and WB-CAL-1 (100 μg/mL) were added to each culture, and the cells were incubated at 4° C. and/or 37° C. The wells were next washed with chilled PBS, and the cells were lysed by adding 1 mL of 0.1N NaOH. An aliquot was taken for determination of cellular proteins and of radioactivity associated with the cells. Protein concentration was determined in a manner as described above.

anti-β2-GPI antibodies = experiment: ELISA of the anti-β2-GPI antibodies by use of a ligand-coated plate (results in words); assay type: binding; conditions: result in words; for binding of the anti-β2-GPI autoantibodies (WB-CAL-1 and EY2C9) to solid-phase ligand: ligand-coated plate
Experimental: as §1, §2

WB-CAL-1 = experiment: ELISA on solid-phase lipid (ligand)-coated plate: WB-CAL-1 binding in presence of β2-GPI; design: species or system mouse; conditions: for WB-CAL-1 binding, No treatment: absorbance at 490 nm, mean ± SD (n = 3), solid-phase ligand not methylated
Experimental: as §1, §2, §3

APS-1 = experiment: ELISA on solid-phase lipid-coated plate: binding of antibodies of APS patient serum APS-1; design: species or system human; conditions: Absorbance, mean ± SD, n = 3
Experimental: (§4) To eliminate endogenous β2-GPI in some experiments, serum samples were passed through a heparin-Sepharose column. The effluent was dialyzed against PBS and was used for ELISAs.
as §2, §3

APS-2 = experiment: ELISA on solid-phase lipid-coated plate: binding of antibodies of APS patient serum APS-2; design: species or system human; conditions: Absorbance, mean ± SD, n = 3
Experimental: as §4, §2, §3

β2-GPI [2] = experiment: ELISA on solid-phase lipid (ligand)-coated plate: β2-GPI binding detected with Cof-22; design: species or system human; conditions: Experiment 2; Absorbance, mean ± SD, n = 3; synthesized oxLig-1-solidified plate, added protein 15 μg/mL
Experimental: as §1, §2, §3

[3] = Experiment 1, Absorbance, mean ± SD, n = 3, solid-phase lipid, β2-GPI 15 μg/mL
[4] = Experiment 1, solid-phase lipid, β2-GPI 15 μg/mL, serum with β2-GPI removed
[5] = Experiment 2, synthesized oxLig-1-solidified plate, added protein 15 μg/mL
[6] = Experiment 2, Absorbance, mean ± SD, n = 3, synthesized oxLig-1-solidified plate, added protein 15 μg/mL

## CC(C)CCC[C@@H](C)[C@H]1CC[C@H]2[C@@H]3C(=O)C=C4C[C@@H](OC(=O)CCCCCCCCCCCC(=O)O)CC[C@]4(C)[C@H]3CC[C@]12C [13-COOH-7KC, 13-oxo-13-(7-ketocholest-5-en-3β-yloxy)tridecanoic acid]
β2-GPI [1]
  β2-GPI binding (Cof-22 binding), No treatment: 1.303 +/− 0.049
  β2-GPI binding to lipid: significant bonding
EY2C9
  EY2C9 binding, No treatment: 1.062 +/− 0.040
J774A.1 cells
  direct binding of liposomes to macrophages: relatively low or negligible small
  binding of liposomes to macrophages after methylation of the ligand: substantially no binding
  uptake of ligand-containing liposomes to J774A.1 cells in the presence of both β2-GPI and WB-CAL-1: significantly enhanced
anti-β2-GPI antibodies
  binding of the anti-β2-GPI autoantibodies (WB-CAL-1 and EY2C9) to solid-phase ligand: significant binding
WB-CAL-1
  WB-CAL-1 binding, No treatment: 0.336 +/− 0.027

## CCCCC/C=C\C/C=C\C/C=C\C/C=C\CCCC(=O)O[C@H](COC(=O)CCCCCCCCCCCCCCC)COP(=O)([O-])OCC[N+](C)(C)C [PAPC, 1-Palmitoyl-2-arachidonoyl-phosphatidylcholine, reference compound]
β2-GPI [1]; [3]
  Binding of β2-GPI-dependent aCL, Cof-22: 0.019 ± 0.003
APS-1; [4]
  Binding of β2-GPI-dependent aCL, APS-1: 0.000 ± 0.001
EY2C9; [3]
  Binding of β2-GPI-dependent aCL, EY2C9: 0.011 ± 0.003
WB-CAL-1; [3]
  Binding of β2-GPI-dependent aCL, WB-CAL-1: 0.012 ± 0.001
APS-2; [4]
  Binding of β2-GPI-dependent aCL, APS-2: 0.010 ± 0.002

## CC(C)CCC[C@@H](C)[C@H]1CC[C@H]2[C@@H]3C(=O)C=C4C[C@@H](OC(=O)CCCCCCCC(=O)CCC(=O)O)CC[C@]4(C)[C@H]3CC[C@]12C [oxLig-2, 4,12-dioxo-12-(7-ketocholest-5-en-3β-yloxy)dodecanoic acid]
β2-GPI [1]
  β2-GPI binding (Cof-22 binding), No treatment: 1.002 +/− 0.084
  β2-GPI binding to lipid: significant bonding
EY2C9
  EY2C9 binding, No treatment: 1.018 +/− 0.121
J774A.1 cells
  direct binding of liposomes to macrophages: relatively low or negligible small
  binding of liposomes to macrophages after methylation of the ligand: substantially no binding
  uptake of ligand-containing liposomes to J774A.1 cells in the presence of both β2-GPI and WB-CAL-1: significantly enhanced
anti-β2-GPI antibodies
  binding of the anti-β2-GPI autoantibodies (WB-CAL-1 and EY2C9) to solid-phase ligand: significant binding
WB-CAL-1
  WB-CAL-1 binding, No treatment: 0.518 +/− 0.023

## CC(C)CCC[C@@H](C)[C@H]1CC[C@H]2[C@@H]3C(=O)C=C4C[C@@H](O)CC[C@]4(C)[C@H]3CC[C@]12C [7-ketocholesterol, 5-cholesten-3β-ol-7-one, reference compound]
β2-GPI [1]
  β2-GPI binding to lipid: did not bind
anti-β2-GPI antibodies
  binding of the three antibodies (WB-CAL-1, EY2C9, mouse monoclonal anti-β2-GPI antibody) to immobilized lipid: did not bind

## CCCCC/C=C\C/C=C\CCCCCCCC(=O)O[C@H]1CC[C@@]2(C)C(=CC[C@H]3[C@@H]4CC[C@H]([C@H](C)CCCC(C)C)[C@@]4(C)CC[C@@H]32)C1 [Cholesteryl linoleate, reference compound]
β2-GPI [1]
  β2-GPI binding (Cof-22 binding), No treatment: 0.061 +/− 0.005
  β2-GPI binding to lipid: did not bind
EY2C9
  EY2C9 binding, No treatment: 0.074 +/− 0.012
anti-β2-GPI antibodies
  binding of the anti-β2-GPI autoantibodies (WB-CAL-1 and EY2C9) to solid-phase ligand: no such binding was observed
WB-CAL-1
  WB-CAL-1 binding, No treatment: 0.056 +/− 0.002

## CC(C)CCC[C@@H](C)[C@H]1CC[C@H]2[C@@H]3CC=C4C[C@@H](O)CC[C@]4(C)[C@H]3CC[C@]12C [cholesterol, Cholesterol, reference compound]
β2-GPI [1]
  β2-GPI binding to lipid: did not bind
anti-β2-GPI antibodies
  binding of the three antibodies (WB-CAL-1, EY2C9, mouse monoclonal anti-β2-GPI antibody) to immobilized lipid: did not bind

B1: β2-GPI: β2-Glycoprotein I purified from normal human plasma (protein, UniProt P02749 20-345, looked up)
Beta-2-glycoprotein 1: T1 sequence (P02749 20-345)
β2-GPI [2]
  Binding of protein-dependent oxLig-1 antibody, Cof-22: 1.007 ± 0.031
APS-1; [5]
  Binding of protein-dependent oxLig-1 antibody, APS-1: 1.043 ± 0.054
EY2C9; [6]
  Binding of protein-dependent oxLig-1 antibody, EY2C9: 1.147 ± 0.028
WB-CAL-1; [6]
  Binding of protein-dependent oxLig-1 antibody, WB-CAL-1: 0.812 ± 0.023
APS-2; [5]
  Binding of protein-dependent oxLig-1 antibody, APS-2: 0.755 ± 0.024
